This note sets out measurements from ChEMBL document CHEMBL1147593, “Design and synthesis of benzoxazole derivatives as novel melatoninergic ligands” (Bioorg Med Chem Lett, 2004).

Assay [1] addresses Melatonin receptor type 1A (Homo sapiens, UniProt P48039). The experiment in a line: Binding of 2-[125I]iodomelatonin to membrane preparations of NIH3T3 cells stably expressing human Melatonin receptor type 1A. The class given is cell membranes.
Assay [2] concerns the target T1, Melatonin receptor type 1B (Homo sapiens, UniProt P49286).
T1 sequence (P49286 whole entry): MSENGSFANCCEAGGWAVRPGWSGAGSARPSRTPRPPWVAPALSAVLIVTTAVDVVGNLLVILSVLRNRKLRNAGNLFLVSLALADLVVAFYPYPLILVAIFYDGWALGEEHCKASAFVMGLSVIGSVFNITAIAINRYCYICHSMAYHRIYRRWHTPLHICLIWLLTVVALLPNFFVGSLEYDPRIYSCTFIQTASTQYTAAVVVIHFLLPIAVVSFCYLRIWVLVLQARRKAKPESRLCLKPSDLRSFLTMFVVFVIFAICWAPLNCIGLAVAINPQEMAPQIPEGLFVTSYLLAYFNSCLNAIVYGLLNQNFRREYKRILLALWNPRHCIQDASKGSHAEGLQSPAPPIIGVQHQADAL
The experiment in a line: Binding of 2-[125I]iodomelatonin to membrane preparations of NIH3T3 cells stably expressing human Melatonin receptor type 1B. The class given is cell membranes.

The structures appear in SMILES notation.

Melatonin receptor type 1A, sequence (P48039 whole entry): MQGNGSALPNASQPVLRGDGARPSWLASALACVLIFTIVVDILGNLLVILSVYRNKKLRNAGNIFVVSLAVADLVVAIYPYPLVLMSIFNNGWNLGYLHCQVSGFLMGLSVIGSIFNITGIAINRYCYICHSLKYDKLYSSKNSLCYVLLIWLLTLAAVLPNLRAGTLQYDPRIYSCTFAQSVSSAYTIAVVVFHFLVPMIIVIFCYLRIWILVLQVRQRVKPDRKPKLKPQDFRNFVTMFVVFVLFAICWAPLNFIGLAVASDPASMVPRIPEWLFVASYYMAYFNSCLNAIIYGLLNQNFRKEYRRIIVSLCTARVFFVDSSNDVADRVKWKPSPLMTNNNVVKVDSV

As usually defined, the Ki is a measure of affinity in units of concentration, obtained from inhibition or displacement. Low readings indicate a stronger hold on the target, high ones a looser hold on the target. On to `CCc1nc2cccc([C@@H]3C[C@H]3CNC(C)=O)c2o1`, for which the Ki in assay [1] stood at 0.35 nM; in assay [2] it was 0.88 nM.
Turning to `CCCC(=O)NC[C@@H]1C[C@H]1c1cccc2nc(CCCCc3ccccc3)oc12`, the inhibition constant (Ki) in assay [1] worked out at 0.05 nM; in assay [2], 0.24 nM.
The like results for `CCCc1nc2cccc([C@@H]3C[C@H]3CNC(=O)C(C)C)c2o1` were, in that order, 4.9 nM and 0.28 nM.
In the same order, the values of `CCCc1nc2cccc([C@@H]3C[C@H]3CNC(=O)NCC)c2o1` are 3.5 nM and 1 nM.
The like results for `CCCC(=O)NC[C@@H]1C[C@H]1c1cccc2nc(CCC)oc12` were, in that order, 0.94 nM and 0.04 nM.
As to `CCNC(=O)NC[C@@H]1C[C@H]1c1cccc2nc(C(C)C)oc12`, the Ki in assay [1] was 11.8 nM; in assay [2] it was 12.6 nM.
In the same order, the values of `CC(C)C(=O)NC[C@@H]1C[C@H]1c1cccc2nc(C(C)C)oc12` are 1.3 nM and 2.5 nM.
In the same order, the values of `CCC(=O)NC[C@@H]1C[C@H]1c1cccc2nc(CCCCc3ccccc3)oc12` are 0.05 nM and 0.07 nM.
The like results for `CC(=O)NC[C@@H]1C[C@H]1c1cccc2nc(CCCCc3ccccc3)oc12` were, in that order, 0.05 nM and 0.37 nM.
For `CCCC(=O)NC[C@@H]1C[C@H]1c1cccc2nc(CC)oc12`, the Ki was determined as 0.05 nM in assay [1] and 0.33 nM in assay [2].
The like results for `CCc1nc2cccc([C@@H]3C[C@H]3CNC(=O)C3CC3)c2o1` were, in that order, 0.05 nM and 0.19 nM.
`CCC(=O)NC[C@@H]1C[C@H]1c1cccc2nc(CC)oc12`: the Ki in assay [1] was 0.05 nM; in assay [2] it was 0.44 nM.
The like results for `O=C(NC[C@@H]1C[C@H]1c1cccc2nc(CCCCc3ccccc3)oc12)C1CC1` were, in that order, 0.05 nM and 0.48 nM.
The like results for `CCCc1nc2cccc([C@@H]3C[C@H]3CNC(=O)C3CC3)c2o1` were, in that order, 0.18 nM and 0.14 nM.
In the same order, the values of `CCC(=O)NC[C@@H]1C[C@H]1c1cccc2nc(C(C)C)oc12` are 4.9 nM and 0.32 nM.
For `CCc1nc2cccc([C@@H]3C[C@H]3CNC(=O)C(C)C)c2o1`, the inhibitory constant (Ki) is 0.2 nM in assay [1] and 0.75 nM in assay [2].
